Assay results as given in patent US3966951A, “Esters of quinoxaline-1,4-dioxides” (Pfizer Inc., priority 1975, dated 1976).
In brackets after ≈: the same amount, converted by molar mass.

Assays:
E. Coli 51A-218 = assay: in vitro MIC, Inocula Replicating Device, anaerobic Gas Pac, BHI agar; assay type: cell-based; conditions: unit assumed
Past. mult 59A006 = assay: as above; assay type: cell-based; conditions: unit assumed
Strep. pyogen 02C203 = assay: as above; assay type: cell-based; conditions: unit assumed
Strep. zoo 02-H001 = assay: as above; assay type: cell-based; conditions: unit assumed
Staph. aureus 01A106 = assay: as above; assay type: cell-based; conditions: unit assumed
E. Coli 51A-266 = assay: as above; assay type: cell-based; conditions: unit assumed
Aer. hydro 72B001 = assay: as above; assay type: cell-based; conditions: unit assumed
Past. mult 59A004 = assay: as above; assay type: cell-based; conditions: unit assumed
Strep. equi 021001 = assay: as above; assay type: cell-based; conditions: unit assumed
Sal. dublin 58U001 = assay: as above; assay type: cell-based; conditions: unit assumed
Sal. typhim 58D011 = assay: as above; assay type: cell-based; conditions: unit assumed
Sal. cholsu 58B242 = assay: as above; assay type: cell-based; conditions: unit assumed
Staph. aureus 01A005 = assay: as above; assay type: cell-based; conditions: unit assumed
swine dysentery = assay: prophylaxis of induced swine dysentery; assay type: in vivo; conditions: 25 ppm or 50 ppm in feed
Text: (§1) In the prophylaxis of two induced diseases, swine dysentery and salmonellosis, excellent results have been obtained. […] In the salmonellosis model, 20 percent of the nonmedicated animals died and 50 percent of the survivors were unthrifty.

[1] = tolerance and pathological examination in swine; assay type: in vivo
feed efficiency of swine = assay type: in vivo; conditions: 50 ppm in feed
tolerance in chicks = assay type: in vivo; conditions: 250 ppm
Treponema hyodysenteriae = assay: MIC against Treponema hyodysenteriae on bovine blood/tryptose agar; assay type: cell-based; conditions: about 5% bovine blood, about 3% tryptose agar, unit assumed
Method: MIC's against Treponema hyodysenteriae were determined by spreading appropriate dilutions of the microorganism on a growth medium containing about 5% bovine blood and about 3% tryptose agar.

Past. multi. 59A006 = assay: acute systemic infection in mice, PD50; assay type: in vivo; conditions: Mus musculus, 0.5, 4 and 24 h after inoculation, ± is 95% confidence
Method: (§2) Acute systemic infections in mice have been used to evaluate the in vivo therapeutic activity of Compound 10. These infections are produced by the intraperitoneal injection of standard cultures suspended in hog gastric mucin. Treatment was initiated 0.5 hours after inoculation with the infecting organism and two subsequent doses administered at 4 and 24 hours after inoculation. Efficacy was measured in PD50 values, the dose of the drug in mg/kg required to protect 50% of the treated mice against otherwise lethal infections. These values were calculated based on the number of mice surviving a 4 day post-treatment holding period. The drugs were administered both orally (po) and subcutaneously (sc). The range quoted indicates the 95% confidence level for the PD50.

E. Coli 51A266 = assay: acute systemic infection in mice, PD50; assay type: in vivo; conditions: Escherichia coli, 0.5, 4 and 24 h after inoculation, ± is 95% confidence
Method: as §2

Sal. cholsu. 58B242 = assay: acute systemic infection in mice, PD50; assay type: in vivo; conditions: Mus musculus, 0.5, 4 and 24 h after inoculation, ± is 95% confidence
Method: as §2

salmonellosis = assay: prophylaxis of induced salmonellosis; assay type: in vivo, swine; conditions: 50 ppm in feed
Text: as §1

Row | Compound | Primary in vitro Activity (MIC) (E. Coli 51A-218) [µg/mL] | Primary in vitro Activity (MIC) (Past. mult 59A006) [µg/mL] | Primary in vitro Activity (MIC) (Strep. pyogen 02C203) [µg/mL] | Primary in vitro Activity (MIC) (Strep. zoo 02-H001) [µg/mL] | Primary in vitro Activity (MIC) (Staph. aureus 01A106) [µg/mL] | Primary in vitro Activity (MIC) (E. Coli 51A-266) [µg/mL] | Primary in vitro Activity (MIC) (Aer. hydro 72B001) [µg/mL] | Primary in vitro Activity (MIC) (Past. mult 59A004) [µg/mL] | Primary in vitro Activity (MIC) (Strep. equi 021001) [µg/mL] | Primary in vitro Activity (MIC) (Sal. dublin 58U001) [µg/mL] | Primary in vitro Activity (MIC) (Sal. typhim 58D011) [µg/mL] | Primary in vitro Activity (MIC) (Sal. cholsu 58B242) [µg/mL] | Primary in vitro Activity (MIC) (Staph. aureus 01A005) [µg/mL] | further results
1 | CC(=O)c1c(COC(=O)c2ccc(O)cc2)[n+]([O-])c2ccccc2[n+]1[O-] [Compound 1] | 50 | 25 | 3.12 | < 1.56 | 1.56 | 50 | 6.25 | 12.5 | < 1.56 | 50 | 50 | 50 | 1.56 | 
2 | CC(=O)c1c(COC(=O)c2cccc(O)c2)[n+]([O-])c2ccccc2[n+]1[O-] [Compound 2] | 50 | 25 | 25 | < 100 | 6.25 | < 100 | 3.2 | 12.5 | < 1.56 | < 100 | < 100 | < 100 | 12.5 | 
3 | CC(=O)c1c(COC(=O)Cc2ccc(O)cc2)[n+]([O-])c2ccccc2[n+]1[O-] [Compound 3] | 12.5 | 6.25 | 6.25 | < 1.56 | 1.56 | 12.5 | < 1.56 | 12.5 | < 1.56 | 50 | 50 | 50 | 0.78 | 
4 | O=C(OCc1c(CO)[n+]([O-])c2ccccc2[n+]1[O-])c1ccc(O)cc1 [Compound 4] | 50 | 12.5 | < 1.56 | 100 | 3.2 | 25 | 12.5 | 100 | < 1.56 | 25 | 25 | 50 | 3.2 | 
5 | O=C(CCc1ccc(O)cc1)OCc1c(CO)[n+]([O-])c2ccccc2[n+]1[O-] [Compound 5] | 100 | 50 | 50 | 100 | 25 | 100 | 12.5 | 50 | 12.5 | 100 | 100 | 100 | 25 | 
6 | O=C(Cc1ccc(O)cc1)OCc1c(CO)[n+]([O-])c2ccccc2[n+]1[O-] [Compound 6] | 12.5 | 25 | < 1.56 | 12.5 | 1.56 | 12.5 | 1.56 | 12.5 | < 1.56 | 25 | 25 | 25 | 1.56 | 
7 | O=C(C=Cc1ccc(O)cc1)OCc1c(CO)[n+]([O-])c2ccccc2[n+]1[O-] [Compound 7] | 12.5 | 25 | 12.5 | 50 | 6.25 | 12.5 | 1.56 | 12.5 | 0.78 | 25 | 12.5 | 25 | 6.25 | 
8 | O=C(CCc1ccc(O)cc1)OCc1c[n+]([O-])c2ccccc2[n+]1[O-] [Compound 8] | 50 | 50 | 6.25 | 6.25 | 12.5 | 100 | 6.25 | < 100 | 6.25 | 100 | 200 | 50 | 12.5 | 
9 | O=C(Cc1ccc(O)cc1)OCc1c[n+]([O-])c2ccccc2[n+]1[O-] [Compound 9] | 25 | 12.5 | 3.12 | 6.25 | 12.5 | 50 | 3.12 | 50 | 6.25 | 50 | 25 | 12.5 | 6.25 | 
10 | CC(=O)c1c(COC(=O)CCc2ccc(O)cc2)[n+]([O-])c2ccccc2[n+]1[O-] [Compound 10, 2-acetyl-3-Hydroxymethyl-Quinoxaline-1,4-Dioxide-p-Hydroxyphenylpropionic Acid Ester] | 6.25 | 12.5 | < 0.39 | < 0.39 | < 0.39 | 25 | 1.56 | 25 | < 0.39 | 50 | 12.5 | 50 | < 0.39 | morbidity in dysentery model (swine dysentery; nonmedicated: 100 percent): no deaths or morbidity; mortality in dysentery model (swine dysentery; nonmedicated: average 36 percent): no deaths; tolerance in swine ([1]; 150 ppm): The same results are observed in swine; adverse effects on pathological examination ([1]; swine, 50 ppm in feed): no adverse effects; increase in feed efficiency of swine (feed efficiency of swine): 3%; tolerance in chicks (tolerance in chicks): extremely well tolerated; MIC (Treponema hyodysenteriae): 0.19 µg/mL (≈ 0.497 µM); ED50 (Past. multi. 59A006; po): 13 ± 1.6 mg/kg; ED50 (Past. multi. 59A006; sc): 13 ± 1.6 mg/kg; ED50 (E. Coli 51A266; po): 7.6 ± 4.7 mg/kg; ED50 (E. Coli 51A266; sc): 13.3 ± 8.6 mg/kg; ED50 (Sal. cholsu. 58B242; po): 8.4 ± 3.2 mg/kg; ED50 (Sal. cholsu. 58B242; sc): 6.9 ± 3.1 mg/kg; mortality in salmonellosis model (salmonellosis; nonmedicated: 20 percent died): none of the animals on a feed containing 50 ppm of Compound 10 died; animals judged unthrifty in salmonellosis model (salmonellosis; nonmedicated: 50 percent of survivors): 30%
